Test results reported in ChEMBL document CHEMBL3507680, “University of Dundee, Gates Library screen for HepG2 cell viability”.

Assay: Human HepG2 cell viability assay in 384 well format
Type: toxicity, cell-based
Set-up: dose 125 nL, time 70.5 hour; cytotoxicity at 70.5 h: concentration not given beside the values
Conditions: HepG2 cells, read-out: Inhibition

| SMILES | cytotoxicity at 70.5 h [%] |
| --- | --- |
| CC(=O)N1N=C(c2ccccc2)OC1C(=O)NCCN(C(C)C)C(C)C (stereo unspecified) | -6.17 |
| CC(=O)N1N=C(c2ccccc2)OC1C(=O)NCC(=O)OC(C)(C)C (stereo unspecified) | -2.16 |
| CC(=O)N1N=C(c2cccs2)OC1C(=O)Nc1ccccc1 (stereo unspecified) | -8.33 |
| Cc1nc(-c2ccoc2)n(CC(=O)NCC(C)C)c1C | 1.09 |
| CN(C)CCN(C)c1cc(N2CCN(c3ccccn3)CC2)ncn1 | 13.5 |
| CN(C)C(=O)c1cc2ncc(C(=O)NC3CCCC3)cc2n1C | -0.145 |
| Cc1csc2cc(C(=O)NC3CCCC3)cnc12 | 3.45 |
| COCCN(CCOC)C(=O)c1cn(C(C)(C)C)c2ncccc12 | 3.1 |
| CNC(=O)c1cn(C(C)(C)C)c2ncccc12 | -2.43 |
| CC(C)(C)n1cc(C(=O)NCCN2CCOCC2)c2cccnc21 | 6.12 |
| CCNC(=O)c1cn(C(C)(C)C)c2ncccc12 | -0.924 |
| O=C(c1cn(Cc2ccccc2)c2ncccc12)N1CCCCC1 | 3.09 |
| CCN1CCN(C(=O)c2cn(Cc3ccccc3)c3ncccc23)CC1 | -0.985 |
| CN1CCCN(c2ncnc(N3CCOCC3)c2N)CC1 | -6.57 |
| CN(C)C(=O)c1cc(-c2ccccc2)[nH]n1 | -6.41 |
| COc1c(C(=O)N2CCNC(=O)C2)cnc2c1c(C)nn2C | 21 |
| NC1(CNC(=O)c2cc3ccccc3[nH]2)CCCC1 | 16 |
| Cn1c(C(=O)NCC2(N)CCCC2)cc2ccccc21 | 3.39 |
| CN1CCC(NC(=O)c2cc(C3CCCCC3)nc3ccccc23)CC1 | -2.29 |
| CC(C)(O)CN1CCC(=O)N(Cc2ccco2)Cc2cc(F)ccc21 | 3.68 |
| CCOC(=O)[C@@H]1[C@@H](O)C(=O)N(C)C12CCN(C(=O)c1ccco1)CC2 | -4.06 |
| CCS(=O)(=O)N1CC(=O)N(CCOc2ccccc2)CC(O)C1 (stereo unspecified) | -2.23 |

| SMILES | cytotoxicity at 70.5 h [%] |
| --- | --- |
| CC1(C)CN(CC(O)C(C)(C)C)C(=O)CN(C(=O)c2ccccc2)C1 (stereo unspecified) | -4.32 |
| CCOC(=O)[C@@H]1[C@@H](OC)C(=O)N(C)C12CCN(C(=O)C(CC)CC)CC2 | -7.55 |
| CCOC(=O)[C@H]1[C@@H](O)C(=O)N(C)C12CCN(C(=O)OCC)CC2 | 0.864 |
| CCOC(=O)[C@H]1[C@@H](O)C(=O)N(C)C12CCN(C(=O)CC(C)(C)C)CC2 | -6.45 |
| CCOC(=O)[C@H]1[C@@H](O)C(=O)N(C)C12CCN(C(=O)c1ccccc1)CC2 | -2.45 |
| COCC1N(C(=O)N2CCOCC2)[C@H]2CC[C@]1(O)CC2 (stereo partly specified) | -1.43 |
| O=C(C1CCC1)N1C(CN2CCOCC2)[C@]2(O)CC[C@H]1CC2 (stereo partly specified) | 13.5 |
| CN(C)C(=O)CN1C[C@H]2CCN(C(=O)C3CCCO3)CC[C@H]2S1(=O)=O (stereo partly specified) | -4.76 |
| Cc1nnc([C@@H]2C[C@H]3CN(C(=O)C4CC4)C[C@H]3O2)[nH]1 | -5.22 |
| CC1CCCCN1C(=O)c1nc2c(n1C(C)C)CCN(C(=O)C1CC1)C2 (stereo unspecified) | -8.72 |
| CN(C)CC(=O)N1Cc2cc(-c3cc[nH]n3)ccc2C1c1cnco1 (stereo unspecified) | -1.64 |
| c1ccc(COCC2CNCc3nccn3C2)nc1 (stereo unspecified) | 0.439 |
| O=C(c1cccnc1)N1Cc2[nH]nc(COCCO)c2C1 | -4.06 |
| O=C(C1CCCO1)N1CC[C@@H]2CN(Cc3ccccc3)S(=O)(=O)[C@@H]2CC1 (stereo partly specified) | -6.03 |
| Cc1nnc([C@H]2C[C@@H]3CCN(C(=O)C4CCOCC4)C[C@H]3O2)[nH]1 | -9.85 |
| c1cn2c(n1)CNCC(COCC1CC1)C2 (stereo unspecified) | -9.26 |
| CCN1CC2(CC1=O)CN(C(=O)C(C)C)CCN(S(C)(=O)=O)C2 (stereo unspecified) | 19.5 |
| COCCn1cnc(-c2cc(C(=O)NC(C)C)c3ccccn23)c1 | -6.05 |
| CC1N(CC2CC2)C(=O)COC12CCN(C(=O)c1ccno1)CC2 (stereo unspecified) | -4.07 |
| CC1N(CC2CC2)C(=O)COC12CCN(C(=O)c1cscn1)CC2 (stereo unspecified) | -5.04 |
| CC(=O)N1CCC(c2cc3c(ncn3C)c(-c3cnn(C)c3)n2)CC1 | -8.6 |
| Cn1cccc1C(=O)NC[C@H]1C[C@@H]2CN(C(=O)c3ccno3)C[C@H]2O1 | -9.62 |

| SMILES | cytotoxicity at 70.5 h [%] |
| --- | --- |
| c1cnc(NCc2n[nH]c3c2CCN(Cc2cccnc2)C3)nc1 | -12.3 |
| CCN1CC2(CC1=O)CN(C(=O)N(C)C)CCN(S(C)(=O)=O)C2 (stereo unspecified) | -10.5 |
| CCN1CC2(CC1=O)CN(C(=O)COC)CCN(S(C)(=O)=O)C2 (stereo unspecified) | -11 |
| O[C@H]1CCN(CC2CCOC2)[C@H]1Cc1ccncc1 (stereo partly specified) | -11.6 |
| CC(C)Nc1nc2c(c(NC3CC3)n1)CN(C(=O)c1ccnnc1)CC2 | 32.6 |
| O=C(C1CCSCC1)N1CC[C@H]2OCC[C@@]2(COCC2CC2)C1 | -6.06 |
| COc1cccc(-c2cnc3n2CCC32CCN(C(C)=O)CC2)c1 | -3.5 |
| COCC1CN(C(=O)[C@H]2CCCO2)Cc2nnn(CC3CC3)c21 (stereo partly specified) | -5.8 |
| Cc1nc(COCc2nc3c(o2)CN(C(=O)c2ccoc2)C3)cs1 | -7.05 |
| CC(C)N1CCC(c2ccnc3c(C(=O)N4CCOCC4)ncn23)CC1 | -5.36 |
| CN(C)C(=O)N1CC2(CCOCC2)c2cc(NC(=O)CCO)ccc21 | -0.169 |
| CCOCC1CN(C(=O)N(C)C)Cc2nnn(CC3CC3)c21 (stereo unspecified) | 4.98 |
| CS(=O)(=O)N1Cc2nc(C(=O)NCc3ccccc3)oc2C1 | -5.1 |
| O=C(C1CCOCC1)N1C[C@@H]2OCCN(CCN3CCCC3)[C@@H]2C1 | -3.55 |
| CC(=O)NCC(=O)N1Cc2nc(COCc3csc(C)n3)oc2C1 | -8.19 |
| Cn1nnc2c1C(COCC1CC1)CN(C(=O)[C@H]1CCCO1)C2 (stereo partly specified) | 0 |
| CC(=O)NCC(=O)N1CCc2nc(-c3ccccc3)nc(C)c2CC1 | -5.16 |
| C[C@@H]1C[C@H]2CN(C(=O)c3cccc4c3OCCO4)C[C@H]2O1 | -8.32 |
| CN(C)CC(=O)N1CC[C@H]2OCC[C@@]2(COCC2CC2)C1 | -11.9 |
| COc1cccc(CNC(=O)c2nc3c(o2)CN(S(C)(=O)=O)C3)c1 | -6.24 |
| CN(C)CCN1CCO[C@H]2CN(C(=O)C3CCOCC3)C[C@H]21 | -4.53 |
| CCS(=O)(=O)N1C[C@@H](c2nnc(C)o2)C[C@H]2OCC[C@H]21 | -9.81 |

| SMILES | cytotoxicity at 70.5 h [%] |
| --- | --- |
| Cn1nc(C(=O)N2CCCC2)c2c1CN(CC1CCOCC1)C2 | 4.3 |
| O=C(C1CCC1)N1CCC2(CC1)CNCCO2 | 4.67 |
| CCN(CC)c1ccc2ccc(C(=O)N(C)C)cn12 | 8.29 |
| CCOCC(=O)N1CCCn2c(nnc2Cn2cccc2)C1 | 3.11 |
| CC(=O)N1CCC2(C1)c1ccccc1S(=O)(=O)N2Cc1ccccc1 (stereo unspecified) | 3.49 |
| Cc1ncsc1C(=O)NCC1CCC2(CCNCC2)CO1 (stereo unspecified) | -6.8 |
| Nc1nc(C(=O)NCC2CCC3(CCNCC3)CO2)cs1 (stereo unspecified) | -13.9 |
| Cc1nc(COC[C@@H]2CC[C@H]3NCC[C@H]3O2)cs1 | 38.8 |
| CN(Cc1cccs1)C1CCC[C@@H]2CN(C(=O)c3cnccn3)C[C@H]12 (stereo partly specified) | -7.78 |
| Cn1cc(-c2nc3c(cc2C(=O)O)CCN(C(=O)C2CC2)CC3)cn1 | -7.13 |
| Cc1oncc1C(=O)N1C[C@H]2CCCC(N(C)Cc3cccs3)[C@H]2C1 (stereo partly specified) | -8.63 |
| N#Cc1cccc(N2CCCC3(C2)CN(c2ncc(F)cn2)CCO3)n1 (stereo unspecified) | 1.87 |
| CCN(CC)c1ncc2c(c1C(=O)O)CCN(C1CCOC1)C2 (stereo unspecified) | 3.75 |
| CN1CCC2(CCCN(C(=O)c3cncn3C)C2)CC1 | -7.82 |
| CN(Cc1ccco1)Cc1cnc2n1CCN(c1ncccn1)CC2 | -9.53 |
| O=C(c1ccccc1)N1CCO[C@@H]2CN(c3ncccn3)C[C@@H]2C1 | -6.94 |
| Cn1nc(Cn2cccn2)c2c1CN(Cc1ccoc1)C2 | -3.73 |
| O=C(NCc1ccco1)[C@@H]1COC[C@H]2CN(c3ncc(F)cn3)C[C@H]21 | -7.6 |
| Cc1cnc(N2C[C@@H]3[C@@H](C2)OCC(=O)N3CC(C)C)nc1 | 2.16 |
| Cc1cccc(S(=O)(=O)N2CC[C@H]3[C@H]2CCN3c2ncccn2)c1 | -6.57 |
| Cc1nnc([C@]23COC[C@H]2CN(Cc2cnn(C)c2)C3)o1 | -4.29 |
| O=C(c1cnccn1)N1C[C@@H]2C[C@@H](c3nc(C4CC4)cs3)O[C@@H]2C1 | -1.34 |

| SMILES | cytotoxicity at 70.5 h [%] |
| --- | --- |
| COCCN1C2(CCN(CC3CC3)C2)c2ccccc2S1(=O)=O (stereo unspecified) | 4.8 |
| Cc1nc(CN2C(=O)COC3(CCN(Cc4ccsc4)CC3)C2C)cs1 (stereo unspecified) | -1.09 |
| Cn1cccc1CN1CCC2(CC1)CN(c1ccccc1)C(=O)CO2 | 2.21 |
| Cc1cccc(CN2C[C@@H]3OCCN(c4ccnc(N(C)C)n4)[C@@H]3C2)c1 | 10 |
| CC(C)N(C)Cc1cnc2n1CCN(C(=O)Cc1ccsc1)C2 | 3.66 |
| O=C(c1cccc(O)c1)N1CCC2(CCN2c2ncccn2)C1 (stereo unspecified) | 2.82 |
| O=C(C[C@@H]1COC[C@H]2CN(C(=O)c3ccccn3)C[C@@H]12)N1CCCC1 | 1.42 |
| CN1CCN(c2ncc3c(c2C(=O)O)CCN(C2CCOC2)C3)CC1 (stereo unspecified) | -7.02 |
| O=C(O)c1c(-c2ccncc2)ncc2c1CCN(C1CCOC1)C2 (stereo unspecified) | -9.17 |
| CCCN1CCc2[nH]nc(C(=O)N3CCNC(=O)C3)c2C1 | -2.77 |
| O=C(O)c1cc2c(nc1-c1ccsc1)CCN(C1CCOC1)CC2 (stereo unspecified) | -12.7 |
| N#Cc1cccc(N2CCCC3(CNCCO3)C2)n1 (stereo unspecified) | -8.33 |
| O[C@H]1CCN(CC2CC2)[C@H]1Cc1ccncc1 | -4.14 |
| CN(C)CCN1CCO[C@H]2CN(C(=O)N(C)C)C[C@H]21 | 24.8 |
| Cc1cccc(CN2C[C@H]3C[C@H](C(=O)NCc4cccnc4)[C@@H](C2)O3)c1 | 25 |
| N#Cc1cccc(CN2Cc3nccn3CC(CN3CCCC3)C2)c1 (stereo unspecified) | 0.61 |
| O=C1COC2(CCN(Cc3cccs3)CC2)CN1c1cccnc1 | 5.94 |
| Cc1ccc(N2CCC3(CC2)COCCN(c2nccs2)C3)nn1 | 2.35 |
